# Source: ChEMBL document CHEMBL1128380, “Antimalarial activity of novel ring-contracted artemisinin derivatives” (1995)
# Assays:
# Format in all cases: functional
# Mus musculus [1] = assay: Antimalarial activity was determined by Blood schizonticidal activity in mice (Mus musculus) infected with Plasmodium berghei K173 at 5 (mg/kg x5) subcutaneous dosage; Cured/treated = 0/6 on day 7
# Mus musculus [2] = assay: Antimalarial activity was determined by Blood schizonticidal activity in mice (Mus musculus) infected with Plasmodium berghei K173 at 20 (mg/kg x5) peroral dosage; Cured/treated = 0/6
# Mus musculus [3] = assay: Antimalarial activity was determined by Blood schizonticidal activity in mice (Mus musculus) infected with Plasmodium berghei K173 at 5 (mg/kg x5) subcutaneous dosage; Cured/treated = 2/6 on day 7
# Mus musculus [4] = assay: Antimalarial activity was determined by Blood schizonticidal activity in mice (Mus musculus) infected with Plasmodium berghei K173 at 5 (mg/kg x5) subcutaneous dosage; Cured/treated = 1/6 on day 7
# Mus musculus [5] = assay: Antimalarial activity was determined by blood schizonticidal activity in mice (Mus musculus) infected with Plasmodium berghei K173 at 10 (mg/kgx5) subcutaneous dosage; Cured/treated = 0/6 on day 7
# Mus musculus [6] = assay: Antimalarial activity was determined by Blood schizonticidal activity in mice (Mus musculus) infected with Plasmodium berghei K173 at 5 (mg/kg x5) subcutaneous dosage; Cured/treated = 6/6 on day 7
# Mus musculus [7] = assay: Antimalarial activity was determined by blood schizonticidal activity in mice (Mus musculus) infected with Plasmodium berghei K173 at 10 (mg/kgx5) peroral dosage; Cured/treated = 34/39 on day 7
# Mus musculus [8] = assay: Antimalarial activity was determined by Blood schizonticidal activity in mice (Mus musculus) infected with Plasmodium berghei K173 at 2.5 (mg/kgx5) subcutaneous dosage; Cured/treated = 28/28 on day 7
# Mus musculus [9] = assay: Antimalarial activity was determined by Blood schizonticidal activity in mice (Mus musculus) infected with Plasmodium berghei NS at 5 (mg/kg x5) subcutaneous dosage; Cured/treated = 22/22
# Mus musculus [10] = assay: Antimalarial activity was determined by Blood schizonticidal activity in mice (Mus musculus) infected with Plasmodium berghei K173 at 15 (mg/kg x5) peroral dosage; Cured/treated = 19/22 on day 7
# Mus musculus [11] = assay: Antimalarial activity was determined by Blood schizonticidal activity in mice (Mus musculus) infected with Plasmodium berghei NS at 25 (mg/kgx5) peroral dosage; Cured/treated = 6/6
# Mus musculus [12] = assay: Antimalarial activity was determined by blood schizonticidal activity in mice (Mus musculus) infected with Plasmodium berghei K173 at 1.25 (mg/kgx5) subcutaneous dosage; Cured/treated = 26/34 on day 7
# Mus musculus [13] = assay: Antimalarial activity was determined by blood schizonticidal activity in mice (Mus musculus) infected with Plasmodium berghei NS at 2.5 (mg/kgx5) subcutaneous dosage; Cured/treated = 11/12
# Mus musculus [14] = assay: Antimalarial activity was determined by Blood schizonticidal activity in mice (Mus musculus) infected with Plasmodium berghei K173 at 1 (mg/kg x5) subcutaneous dosage; Cured/treated = 10/22 on day 7
# Mus musculus [15] = assay: Antimalarial activity was determined by Blood schizonticidal activity in mice (Mus musculus) infected with Plasmodium berghei K173 at 25 (mg/kgx5) peroral dosage; Cured/treated = 16/16
# Mus musculus [16] = assay: Antimalarial activity was determined by Blood schizonticidal activity in mice (Mus musculus) infected with Plasmodium berghei K173 at 2.5 (mg/kgx5) subcutaneous dosage; Cured/treated = 0/6 on day 7
# Mus musculus [17] = assay: Antimalarial activity was determined by Blood schizonticidal activity in mice (Mus musculus) infected with Plasmodium berghei K173 at 25 (mg/kgx5) peroral dosage; Cured/treated = 0/6 on day 7
# Mus musculus [18] = assay: Antimalarial activity was determined by blood schizonticidal activity in mice (Mus musculus) infected with Plasmodium berghei K173 at 5 (mg/kg x5) subcutaneous dosage; Cured/treated = 6/6
# Mus musculus [19] = assay: Antimalarial activity was determined by Blood schizonticidal activity in mice (Mus musculus) infected with Plasmodium berghei K173 at 10 (mg/kgx5) subcutaneous dosage; Cured/treated = 6/6
# Mus musculus [20] = assay: Antimalarial activity was determined by Blood schizonticidal activity in mice (Mus musculus) infected with Plasmodium berghei K173 at 5 (mg/kg x5) subcutaneous dosage; Cured/treated = 5/5
# Mus musculus [21] = assay: Antimalarial activity was determined by blood schizonticidal activity in mice (Mus musculus) infected with Plasmodium berghei K173 at 2.5 (mg/kgx5) subcutaneous dosage; Cured/treated = 0/4 on day 7
# Mus musculus [22] = assay: Antimalarial activity was determined by Blood schizonticidal activity in mice (Mus musculus) infected with Plasmodium berghei K173 at 10 (mg/kgx5) subcutaneous dosage; Cured/treated = 0/5 on day 7
# Mus musculus [23] = assay: Antimalarial activity was determined by Blood schizonticidal activity in mice (Mus musculus) infected with Plasmodium berghei K173 at 5 (mg/kg x5) subcutaneous dosage; Cured/treated = 0/5 on day 7
# Mus musculus [24] = assay: Antimalarial activity was determined by blood schizonticidal activity in mice (Mus musculus) infected with Plasmodium berghei K173 at 25 (mg/kgx5) peroral dosage; Cured/treated = 0/6
# Mus musculus [25] = assay: Antimalarial activity was determined by Blood schizonticidal activity in mice (Mus musculus) infected with Plasmodium berghei K173 at 5 (mg/kg x5) subcutaneous dosage; Cured/treated = 5/6 on day 7
# Mus musculus [26] = assay: Antimalarial activity was determined by Blood schizonticidal activity in mice (Mus musculus) infected with Plasmodium berghei K173 at 10 (mg/kgx5) subcutaneous dosage; Cured/treated = 0/4 on day 7
smiles,measurement,setting,value
CCN(CC)CCOC[C@@]1(C)O[C@@H]2O[C@]3(C)CCC4[C@H](C)CC[C@@H]1[C@]42OO3 (some centres not stated),Cured/treated,Mus musculus [1],0
same,Cured/treated,Mus musculus [2],0
C[C@@H]1CC[C@@H]2[C@]34OO[C@@](C)(CCC13)O[C@H]4O[C@]2(C)C(=O)Sc1ccccc1 (some centres not stated),Cured/treated,Mus musculus [3],2
C[C@@H]1CC[C@@H]2[C@]34OO[C@@](C)(CCC13)O[C@H]4O[C@]2(C)CC(=O)ONc1ccc(Cl)cc1 (some centres not stated),Cured/treated,Mus musculus [4],1
same,Cured/treated,Mus musculus [2],0
C[C@@H]1CC[C@@H]2[C@]34OO[C@@](C)(CCC13)O[C@H]4O[C@]2(C)COC(=O)C(=O)O (some centres not stated),Cured/treated,Mus musculus [5],0
C[C@@H]1CC[C@@H]2[C@]34OO[C@@](C)(CCC13)O[C@H]4O[C@]2(C)C(=O)N1CCN(C)CC1 (some centres not stated),Cured/treated,Mus musculus [5],0
C[C@@H]1CC[C@@H]2[C@]34OO[C@@](C)(CCC13)O[C@H]4O[C@]2(C)CO/C(S)=N/c1ccccc1 (some centres not stated),Cured/treated,Mus musculus [6],6
C=CC/N=C(\S)OC[C@@]1(C)O[C@@H]2O[C@]3(C)CCC4[C@H](C)CC[C@@H]1[C@]42OO3 (some centres not stated),Cured/treated,Mus musculus [5],0
C[C@@H]1CC[C@@H]2[C@]34OO[C@@](C)(CCC13)O[C@H]4O[C@]2(C)CO/C(S)=N/c1ccc(Cl)cc1 (some centres not stated),Cured/treated,Mus musculus [7],34
same,Cured/treated,Mus musculus [8],28
same,Cured/treated,Mus musculus [9],22
same,Cured/treated,Mus musculus [10],19
same,Cured/treated,Mus musculus [11],6
same,Cured/treated,Mus musculus [12],26
same,Cured/treated,Mus musculus [13],11
same,Cured/treated,Mus musculus [14],10
same,Cured/treated,Mus musculus [15],16
C[C@@H]1CC[C@@H]2[C@]34OO[C@@](C)(CCC13)O[C@H]4O[C@]2(C)CO/C(S)=N\c1ccc(F)cc1 (some centres not stated),Cured/treated,Mus musculus [16],0
same,Cured/treated,Mus musculus [17],0
same,Cured/treated,Mus musculus [18],6
CCOC(=O)c1cc(Cl)ccc1/N=C(/S)OC[C@@]1(C)O[C@@H]2O[C@]3(C)CCC4[C@H](C)CC[C@@H]1[C@]42OO3 (some centres not stated),Cured/treated,Mus musculus [5],0
"C[C@@H]1CCC2[C@]34OOC(C)(CCC13)O[C@H]4O[C@]2(C)CO (single isomer, unassigned)",Cured/treated,Mus musculus [5],0
"C[C@@H]1CCC2[C@]34OOC(C)(CCC13)O[C@H]4O[C@]2(C)C(=O)O (single isomer, unassigned)",Cured/treated,Mus musculus [5],0
"C#CCOC[C@@]1(C)O[C@@H]2OC3(C)CCC4[C@H](C)CC[C@@H]1[C@]42OO3 (single isomer, unassigned)",Cured/treated,Mus musculus [19],6
same,Cured/treated,Mus musculus [1],0
"C[C@@H]1CC[C@@H]2[C@]34OOC(C)(CCC13)O[C@H]4O[C@]2(C)COC/C=C/c1ccccc1 (single isomer, unassigned)",Cured/treated,Mus musculus [1],0
"C[C@@H]1CC[C@@H]2[C@]34OOC(C)(CCC13)O[C@H]4O[C@]2(C)C(=O)OCCBr (single isomer, unassigned)",Cured/treated,Mus musculus [1],0
"C=CCOC(=O)[C@@]1(C)O[C@@H]2OC3(C)CCC4[C@H](C)CC[C@@H]1[C@]42OO3 (single isomer, unassigned)",Cured/treated,Mus musculus [5],0
"C[C@@H]1CC[C@@H]2[C@]34OOC(C)(CCC13)O[C@H]4O[C@]2(C)/C=C/c1ccc(C(F)(F)F)cc1 (single isomer, unassigned)",Cured/treated,Mus musculus [20],5
same,Cured/treated,Mus musculus [21],0
"CCOC(=O)C(=C[C@@]1(C)O[C@@H]2OC3(C)CCC4[C@H](C)CC[C@@H]1[C@]42OO3)C(=O)OCC (single isomer, unassigned)",Cured/treated,Mus musculus [22],0
"CCOC(=O)/C=C\[C@@]1(C)O[C@@H]2OC3(C)CCC4[C@H](C)CC[C@@H]1[C@]42OO3 (single isomer, unassigned)",Cured/treated,Mus musculus [23],0
"C[C@@H]1CC[C@@H]2[C@]34OOC(C)(CCC13)O[C@H]4O[C@]2(C)C(=O)OCCCl (single isomer, unassigned)",Cured/treated,Mus musculus [1],0
same,Cured/treated,Mus musculus [24],0
"C[C@@H]1CC[C@@H]2[C@]34OOC(C)(CCC13)O[C@H]4O[C@]2(C)COS(=O)(=O)c1ccccc1 (single isomer, unassigned)",Cured/treated,Mus musculus [5],0
"Cc1ccc(S(=O)(=O)OC[C@@]2(C)O[C@@H]3OC4(C)CCC5[C@H](C)CC[C@@H]2[C@]53OO4)cc1 (single isomer, unassigned)",Cured/treated,Mus musculus [25],5
"C[C@@H]1CC[C@@H]2[C@]34OOC(C)(CCC13)O[C@H]4O[C@]2(C)COC=O (single isomer, unassigned)",Cured/treated,Mus musculus [22],0
"C[C@@H]1CC[C@@H]2[C@]34OOC(C)(CCC13)O[C@H]4O[C@]2(C)CC(=O)Oc1ccc([N+](=O)[O-])cc1 (single isomer, unassigned)",Cured/treated,Mus musculus [4],1
"C[C@@H]1CC[C@@H]2[C@]34OOC(C)(CCC13)O[C@H]4O[C@]2(C)COC(=O)CCCCl (single isomer, unassigned)",Cured/treated,Mus musculus [1],0
"C[C@@H]1CC[C@@H]2[C@]34OOC(C)(CCC13)O[C@H]4O[C@]2(C)COS(C)(=O)=O (single isomer, unassigned)",Cured/treated,Mus musculus [1],0
"C[C@@H]1CC[C@@H]2[C@]34OOC(C)(CCC13)O[C@H]4O[C@]2(C)COC(=O)CCl (single isomer, unassigned)",Cured/treated,Mus musculus [1],0
"CCOC(=O)[C@@]1(C)O[C@@H]2OC3(C)CCC4[C@H](C)CC[C@@H]1[C@]42OO3 (single isomer, unassigned)",Cured/treated,Mus musculus [26],0
"C[C@@H]1CC[C@@H]2[C@]34OOC(C)(CCC13)O[C@H]4O[C@]2(C)C(=O)OCCCCCCCCCl (single isomer, unassigned)",Cured/treated,Mus musculus [26],0
"C[C@@H]1CC[C@@H]2[C@]34OOC(C)(CCC13)O[C@H]4O[C@]2(C)C(=O)OCCCCl (single isomer, unassigned)",Cured/treated,Mus musculus [1],0
"C[C@@H]1CC[C@@H]2[C@]34OOC(C)(CCC13)O[C@H]4O[C@]2(C)C(=O)N1CCOCC1 (single isomer, unassigned)",Cured/treated,Mus musculus [5],0
"C[C@@H]1CC[C@@H]2[C@]34OOC(C)(CCC13)O[C@H]4O[C@]2(C)COC(=S)N1CCN(c2cccc(C(F)(F)F)c2)CC1 (single isomer, unassigned)",Cured/treated,Mus musculus [1],0
